Test results: patent US8809340B2, “Crystalline form” (Novartis AG, priority 2012, dated 2014)
Where a name gives a salt, the structure may show the parent alone.

How the values were obtained:
[1] = Solid-form transformation upon drying; format: physicochemical; conditions: transient solvate form in suspension during the crystallization of Form A
[2] = Relative thermodynamic stability of polymorphic forms; format: physicochemical; conditions: polymorph comparison, succinate salt

Compound: CCCN(CCC)C(=O)COC(=O)CCNS(=O)(=O)c1cccc(C(=O)N2CCC3(CC2)CN/C(=N\C(=O)c2nc(Cl)c(N)nc2N)N3)c1 [Form B, 3-(3-{2-[(E)-3,5-Diamino-6-chloro-pyrazine-2-carbonylimino]-1,3,8-triaza-spiro[4.5]decane-8-carbonyl}-benzenesulfonylamino)-propionic acid dipropylcarbamoylmethyl ester succinate salt]
- form stability / transformation upon drying [1]: transforms into Form A upon drying

Compound: CCCN(CCC)C(=O)COC(=O)CCNS(=O)(=O)c1cccc(C(=O)N2CCC3(CC2)CN/C(=N\C(=O)c2nc(Cl)c(N)nc2N)N3)c1 [Form C, 3-(3-{2-[(E)-3,5-Diamino-6-chloro-pyrazine-2-carbonylimino]-1,3,8-triaza-spiro[4.5]decane-8-carbonyl}-benzenesulfonylamino)-propionic acid dipropylcarbamoylmethyl ester succinate salt]
- thermodynamic stability relative to Form A [2]: thermodynamically more stable than Form A
